In publication PMC11721022, “Standardized Chromatographic and Computational Approaches for Lipophilicity Analysis of Five Gliflozin Antidiabetic Drugs in Relation to Their Biological Activity” (Molecules, 2024):

Columns and labels:
[1] = HPLC lipophilicity (log kW, standardized to log PEXP); format: physicochemical
Protocol: All experiments were performed using an HPLC system equipped with a solvent delivery pump 515 and a UV/VIS detector 2487 from Waters UK Sales (Elstree, UK), a degasser 964 from Jasco Inc. (Easton, MD, USA), and LiChrospher RP18, RP8 and CN columns (125 × 4.0 mm, 5 µm) from Merck. For RP18 and RP8 stationary phases, acetonitrile was used in the range of 35–60% and methanol in the range of 55–80%. For CN adsorbent, acetonitrile was used in the range 30–55% and methanol in the range 45–70%. For all chromatographic systems, a 5% step change in the concentration of the organic modifier was applied (Table S2 in Supplementary Files). The flow for each mobile phase and each chromatographic run was 1 mL/min while detection was performed at 260 nm. The analyzed drugs and six reference substances were dissolved in methanol to obtain concentrations of 0.1 mg/mL and injected into the column in the volume of 20 µL. All experiments were performed in triplicate with a constant temperature of 23 ± 0.5 °C.
(§1) In our study, six standards of known lipophilicity in the range of 0.62–3.5 were used. For each standard, the same chromatographic procedures were performed as for the analyzed drugs, obtaining their RF or tR values. Then, the RM, RMW, log k, and log kW values were calculated using Equations (1)–(3). In the next step, correlations between the chromatographically obtained RMW or log kW values for these six standards and their literary log P values were calculated and expressed as respective calibration equations (Table 1). In addition, using these calibration equations, the chromatographic systems were evaluated by calculating the log PEXP values for the standards. […] From these calibration equations, the experimental log PTLC and log PHPLC (log PEXP) for the examined drugs were determined, using their RMW and log kW values.

[2] = TLC lipophilicity (RMW, standardized to log PEXP); format: physicochemical
Protocol: Plates (10 × 10 cm, 0.25 mm) pre-coated with silica gel RP18F254, RP8F254 and CNF254 from Merck were used as the stationary phases. The tested drugs and six reference substances were dissolved in methanol to obtain working solutions at a concentration of 2 mg/mL. Volumes of 5 µL of these working solutions were spotted onto the plates which were then developed at a distance of 9 cm in the horizontal developing chambers (Chromdes, Lublin, Poland). The ranges for the organic modifier concentration in water varied depending on the type of stationary phase and the modifier used. For RP18 and RP8 systems, acetonitrile in the range 35–60% and methanol in the range 60–85% were used. For CN systems, acetonitrile was used in the range of 40–60% while methanol was used in the range of 45–65%. […] All experiments were performed in triplicate with a constant temperature of 23 ± 0.5 °C.
as §1

[3] = Experimental lipophilicity from HPLC and TLC methods combined (standardization procedure); format: physicochemical; conditions: mean over all HPLC and TLC systems
Protocol: as §1

SGLT2 [4] = test: SGLT2 inhibition (literature); format: biochemical; conditions: pIC50 (SGLT2, literature) minus mean log PEXP
[5] = parameters: method as in PMID 30151080, PMID 34586753; conditions: cited from earlier work
[6] = parameters: method as in PMID 30151080, PMID 34586753; conditions: cited from earlier work; remark: listed apart in the source
[7] = parameters: method as in earlier work; conditions: established lipophilicity of standards; cited from earlier work
SGLT2 [8] = conditions: Table 6; cited from earlier work
[9] = HPLC.CN/MeOH (CN column, methanol modifier)
[10] = LiChrospher CN HPLC column (125 × 4.0 mm, 5 µm), HPLC.CN/ACN (CN column, acetonitrile modifier)
[11] = LiChrospher RP8 HPLC column (125 × 4.0 mm, 5 µm), HPLC.RP8/MeOH
[12] = LiChrospher RP18 HPLC column (125 × 4.0 mm, 5 µm), HPLC.RP18/ACN
[13] = LiChrospher RP18 HPLC column (125 × 4.0 mm, 5 µm), HPLC.RP18/MeOH
[14] = LiChrospher RP8 HPLC column (125 × 4.0 mm, 5 µm), HPLC.RP8/ACN
[15] = LiChrospher CN HPLC column (125 × 4.0 mm, 5 µm), HPLC.CN/MeOH (CN column, methanol modifier)

| Compound | chromatographic logP [1, 10] | chromatographic logP [1, 12] | chromatographic logP [1, 13] | chromatographic logP ([2]; TLC.CN/ACN) | chromatographic logP ([2]; TLC.CN/MeOH) | chromatographic logP ([2]; TLC.RP8/ACN) | chromatographic logP ([2]; TLC.RP8/MeOH) | chromatographic logP ([2]; TLC.RP18/MeOH) | log PEXP (Mean ± SD) [3] | LLE (lipophilic ligand efficiency) (SGLT2 [4]) | PB (protein-binding capacity) [5] | CL (apparent total clearance) [6] | T0.5 (half-life) [6] | VD (apparent volume of distribution) [6] | log PEXP ([1]; HPLC.RP8/MeOH) | chromatographic logP [1, 14] | chromatographic logP ([2]; TLC.RP18/ACN) | IC50 (SGLT2 [8]) | chromatographic logP [1, 15] | also measured |
| --- | --- | --- | --- | --- | --- | --- | --- | --- | --- | --- | --- | --- | --- | --- | --- | --- | --- | --- | --- | --- |
| OC[C@H]1O[C@@H](c2ccc(Cl)c(Cc3ccc(O[C@H]4CCOC4)cc3)c2)[C@H](O)[C@@H](O)[C@@H]1O [EMPA, empagliflozin] | 2.3 | 1.35 | 2.85 | 1.87 | 3.51 | 1.68 | 2.48 | 2.99 | 2.28 ± 0.73 | 6.23 | 86% | 10.6 L/h | 12.4 h | 73.8 L | – | – | – | – | – | log PEXP [1, 9]: 2.66; log PEXP ([1]; HPLC.RP8/ACN): 1.70; chromatographic logP [1, 11]: 2.78; log PEXP ([2]; TLC.RP18/ACN): 1.30 |
| Nc1ccccc1O [S1, 2-aminophenol] | – | – | – | – | – | – | – | – | – | – | – | – | – | – | – | – | – | – | – | log P [7]: 0.62 |
| CCOc1ccc(Cc2cc([C@@H]3O[C@H](SC)[C@@H](O)[C@H](O)[C@H]3O)ccc2Cl)cc1 [SOTA, sotagliflozin] | 3.59 | 3.4 | – | 2.32 | 4.61 | 4.08 | 4.26 | 4.5 | 3.94 ± 0.67 | 4.8 | 98% | 261 L/h | 21 h | 9392 L | 4.43 | 3.28 | 3.69 | 1.8 nM | – | log PEXP [1, 9]: 4.57; log PEXP ([1]; HPLC.RP18/MeOH): 4.50 |
| Cc1ccc([C@@H]2O[C@H](CO)[C@@H](O)[C@H](O)[C@H]2O)cc1Cc1ccc(-c2ccc(F)cc2)s1 [CANA, canagliflozin] | 3.73 | – | 4.55 | 2.4 | 5.86 | 3.55 | 4.07 | 4.43 | 3.99 ± 0.91 | 4.67 | 99% | 11.52 L/h | – | 83.5 L | 4.43 | – | 3.47 | 2.2 nM | 4.91 | log PEXP ([1]; HPLC.RP8/ACN): 3.23; log PEXP ([1]; HPLC.RP18/ACN): 3.28 |
| c1ccc(Nc2ccccc2)cc1 [S6, diphenylamine] | – | – | – | – | – | – | – | – | – | – | – | – | – | – | – | – | – | – | – | log P [7]: 3.5 |
| CCOc1ccc(Cc2cc([C@]34OC[C@](CO)(O3)[C@@H](O)[C@H](O)[C@H]4O)ccc2Cl)cc1 [ERTU, ertugliflozin] | 2.49 | – | 3.59 | 2.01 | 3.97 | – | 3.54 | 3.27 | 3.04 ± 0.61 | 6.02 | 94% | 10.68 L/h | 11 h | 85.5 L | – | 2.4 | 3.13 | 0.87 nM | 3.36 | log PEXP ([1]; HPLC.RP18/ACN): 2.22; chromatographic logP [1, 11]: 3.49; log PEXP ([2]; TLC.RP8/ACN): 2.99 |
| CCOc1ccc(Cc2cc([C@@H]3O[C@H](CO)[C@@H](O)[C@H](O)[C@H]3O)ccc2Cl)cc1 [DAPA, dapagliflozin] | – | 2 | 3.27 | 2.03 | 4.72 | 2.3 | – | 3.58 | 2.83 ± 0.78 | 6.12 | 91% | 12.42 L/h | – | 118 L | 3.20 | 2.11 | 2.22 | – | 3.08 | log PEXP ([1]; HPLC.CN/ACN (CN column, acetonitrile modifier)): 2.34; log PEXP ([2]; TLC.RP8/MeOH): 3.14 |
